Assay results: ChEMBL document CHEMBL1201862, “PubChem BioAssay data set” (2004)
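Tested at 5 concentrations; 48 h exposure; 96-well plates; endpoints linearly interpolated, else capped at highest concentration. GI50: concentration for 50% inhibition of growth.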 Calls of active or inactive are those of the source. Cut-off read from the data, not from the text of the source: active = GI50 up to about 1.1 µM and inactive = higher.

Key:
Assay in all cases: NCI anticancer screen, dose series, 48 h
SW-620 = tested on: SW-620
COLO 205 = tested on: COLO 205
SR = tested on: SR
U-251 = tested on: U-251
SK-MEL-5 = tested on: SK-MEL-5
TK-10 = tested on: TK-10
A498 = tested on: A498
Malme-3M = tested on: Malme-3M
UACC-62 = tested on: UACC-62
ACHN = tested on: ACHN
SNB-19 = tested on: SNB-19
UACC-257 = tested on: UACC-257
SK-MEL-2 = tested on: SK-MEL-2
HCT-15 = tested on: HCT-15
OVCAR-8 = tested on: OVCAR-8
OVCAR-5 = tested on: OVCAR-5
K562 = tested on: K562
OVCAR-4 = tested on: OVCAR-4
NCI/ADR-RES = tested on: NCI/ADR-RES

For `COc1c2c(c(O)c3c4c(c(C)cc13)C1OC3(C(OC)OC5CC(C)(O)C(OC6CC(C)(O)C(O)C(C)O6)C(C)O5)OC1C(OC)(O4)C31CO1)C(=O)C(O)CC2OC1CC(C)(O)C(OC(C)=O)C(C)O1` (centres undefined), which GI50 (SW-620) is on record?
The GI50 was < 0.01 µM (active).

And the GI50 (COLO 205)?
Its GI50 is < 0.01 µM (active).

And the GI50 (SR)?
The GI50 was < 0.01 µM (active).

And the GI50 (U-251)?
The GI50 was < 0.01 µM (active).

And the GI50 (SK-MEL-5)?
The GI50 was < 0.01 µM (active).

And the GI50 (TK-10)?
The GI50 was < 0.01 µM (active).

What about the GI50 (A498) of the same molecule?
Its GI50 is < 0.01 µM (active).

And the GI50 (Malme-3M)?
The GI50 was < 0.01 µM (active).

What about the GI50 (UACC-62) of the same molecule?
Its GI50 is < 0.01 µM (active).

And the GI50 (ACHN)?
The GI50 was < 0.0112 µM (active).

And the GI50 (SNB-19)?
The GI50 was < 0.01 µM (active).

What about the GI50 (UACC-257) of the same molecule?
The GI50 was < 0.01 µM (active).

What about the GI50 (SK-MEL-2) of the same molecule?
The GI50 was < 0.01 µM (active).

What about the GI50 (HCT-15) of the same molecule?
Its GI50 is 0.0767 µM.

What about the GI50 (OVCAR-8) of the same molecule?
The GI50 was < 0.01 µM (active).

What about the GI50 (OVCAR-5) of the same molecule?
Its GI50 is < 0.01 µM (active).

And the GI50 (K562)?
Its GI50 is < 0.01 µM (active).

And the GI50 (OVCAR-4)?
The GI50 was < 0.01 µM (active).

With `O=C(NC1C2CC3CC(C2)CC1C3)c1cc(/C=C/c2ccccc2)nc(S)n1` (centres undefined) as the molecule, how does the GI50 (SW-620) read?
Its GI50 is > 100 µM (inactive).

And the GI50 (COLO 205)?
Its GI50 is > 100 µM (inactive).

And the GI50 (SR)?
Its GI50 is > 100 µM (inactive).

What about the GI50 (U-251) of the same molecule?
The GI50 was > 100 µM (inactive).

And the GI50 (SK-MEL-5)?
The GI50 was > 100 µM (inactive).

And the GI50 (TK-10)?
The GI50 was > 100 µM (inactive).

And the GI50 (A498)?
The GI50 was > 100 µM (inactive).

What about the GI50 (Malme-3M) of the same molecule?
Its GI50 is > 100 µM (inactive).

What about the GI50 (UACC-62) of the same molecule?
The GI50 was > 100 µM (inactive).

And the GI50 (ACHN)?
The GI50 was > 100 µM (inactive).

And the GI50 (SNB-19)?
Its GI50 is > 100 µM (inactive).

And the GI50 (UACC-257)?
The GI50 was > 100 µM (inactive).

What about the GI50 (SK-MEL-2) of the same molecule?
Its GI50 is > 100 µM (inactive).

And the GI50 (OVCAR-8)?
The GI50 was > 100 µM (inactive).

And the GI50 (OVCAR-5)?
The GI50 was > 100 µM (inactive).

And the GI50 (K562)?
Its GI50 is > 100 µM (inactive).

What about the GI50 (OVCAR-4) of the same molecule?
The GI50 was > 100 µM (inactive).

With `C#CCn1c(=O)c(C#N)c(O)c2cc3ccccc3nc21` as the molecule, how does the GI50 (SW-620) read?
The GI50 was > 100 µM (inactive).

What about the GI50 (COLO 205) of the same molecule?
The GI50 was > 100 µM (inactive).

And the GI50 (SK-MEL-5)?
Its GI50 is > 100 µM (inactive).

And the GI50 (A498)?
Its GI50 is > 100 µM (inactive).

And the GI50 (Malme-3M)?
The GI50 was > 100 µM (inactive).

What about the GI50 (UACC-62) of the same molecule?
Its GI50 is > 100 µM (inactive).

And the GI50 (SNB-19)?
The GI50 was > 100 µM (inactive).

And the GI50 (UACC-257)?
The GI50 was > 100 µM (inactive).

And the GI50 (NCI/ADR-RES)?
The GI50 was > 100 µM (inactive).

And the GI50 (SK-MEL-2)?
The GI50 was > 100 µM (inactive).

And the GI50 (HCT-15)?
The GI50 was > 100 µM.

What about the GI50 (OVCAR-8) of the same molecule?
The GI50 was > 100 µM (inactive).

And the GI50 (OVCAR-5)?
Its GI50 is > 84.9 µM (inactive).

What about the GI50 (K562) of the same molecule?
The GI50 was > 100 µM (inactive).

And the GI50 (OVCAR-4)?
The GI50 was > 10 µM (inactive).

What does the source list for `CSC(=N)NNC(=O)CCC(=O)Nc1ccccc1C(F)(F)F`?
GI50 (SW-620): > 82.2 µM (inactive); GI50 (COLO 205): > 100 µM (inactive); GI50 (SR): > 100 µM (inactive); GI50 (U-251): > 100 µM (inactive); GI50 (SK-MEL-5): > 100 µM (inactive); GI50 (TK-10): > 100 µM (inactive); GI50 (A498): > 100 µM (inactive); GI50 (Malme-3M): > 100 µM (inactive); GI50 (UACC-62): > 100 µM (inactive); GI50 (ACHN): > 100 µM (inactive); GI50 (SNB-19): > 100 µM (inactive); GI50 (UACC-257): > 100 µM (inactive); GI50 (SK-MEL-2): > 100 µM (inactive); GI50 (HCT-15): > 100 µM; GI50 (OVCAR-8): > 100 µM (inactive); GI50 (OVCAR-5): > 100 µM (inactive); GI50 (K562): > 100 µM (inactive); GI50 (OVCAR-4): > 100 µM (inactive)

Which results are given for `O=C(NC1C(O)C(O)C(CO)OC1n1cc(F)c(=O)[nH]c1=O)OCc1ccccc1` (centres undefined)?
GI50 (SW-620): > 100 µM (inactive); GI50 (COLO 205): > 100 µM (inactive); GI50 (SR): > 100 µM (inactive); GI50 (U-251): > 100 µM (inactive); GI50 (SK-MEL-5): > 100 µM (inactive); GI50 (TK-10): > 100 µM (inactive); GI50 (A498): > 100 µM (inactive); GI50 (Malme-3M): > 100 µM (inactive); GI50 (ACHN): > 100 µM (inactive); GI50 (SNB-19): > 100 µM (inactive); GI50 (UACC-257): > 100 µM (inactive); GI50 (SK-MEL-2): > 100 µM (inactive); GI50 (HCT-15): > 100 µM; GI50 (OVCAR-5): > 100 µM (inactive); GI50 (OVCAR-4): > 100 µM (inactive)

`O=Cc1ccc(CCl)cc1` was tested. Which GI50 (SW-620) did it give?
Its GI50 is 21.5 µM (inactive).

What about the GI50 (COLO 205) of the same molecule?
The GI50 was 48 µM (inactive).

What about the GI50 (SR) of the same molecule?
The GI50 was 19.5 µM (inactive).

What about the GI50 (U-251) of the same molecule?
Its GI50 is 18.2 µM (inactive).

What about the GI50 (SK-MEL-5) of the same molecule?
The GI50 was 16.6 µM (inactive).

What about the GI50 (TK-10) of the same molecule?
The GI50 was 22.1 µM (inactive).

What about the GI50 (A498) of the same molecule?
The GI50 was 29 µM (inactive).

And the GI50 (UACC-62)?
The GI50 was 12.6 µM (inactive).

What about the GI50 (ACHN) of the same molecule?
The GI50 was 22.5 µM (inactive).

What about the GI50 (SNB-19) of the same molecule?
The GI50 was 14.7 µM (inactive).

What about the GI50 (UACC-257) of the same molecule?
Its GI50 is 17.7 µM (inactive).

What about the GI50 (SK-MEL-2) of the same molecule?
The GI50 was 17.2 µM (inactive).

And the GI50 (HCT-15)?
The GI50 was 17.9 µM.

And the GI50 (OVCAR-8)?
Its GI50 is 18.8 µM (inactive).

And the GI50 (OVCAR-5)?
Its GI50 is 20.5 µM (inactive).

What about the GI50 (K562) of the same molecule?
Its GI50 is 27.1 µM (inactive).

With `NC(=O)c1coc(C2OC(CO)C(O)C2O)n1` (centres undefined) as the molecule, how does the GI50 (SW-620) read?
Its GI50 is > 100 µM (inactive).

And the GI50 (COLO 205)?
Its GI50 is > 100 µM (inactive).

And the GI50 (SR)?
Its GI50 is > 100 µM (inactive).

What about the GI50 (U-251) of the same molecule?
The GI50 was > 100 µM (inactive).

And the GI50 (TK-10)?
Its GI50 is > 100 µM (inactive).

And the GI50 (A498)?
The GI50 was > 100 µM (inactive).

And the GI50 (Malme-3M)?
Its GI50 is > 100 µM (inactive).

What about the GI50 (UACC-62) of the same molecule?
Its GI50 is > 100 µM (inactive).

What about the GI50 (ACHN) of the same molecule?
The GI50 was > 100 µM (inactive).

What about the GI50 (SNB-19) of the same molecule?
Its GI50 is > 100 µM (inactive).

What about the GI50 (SK-MEL-2) of the same molecule?
Its GI50 is > 100 µM (inactive).

And the GI50 (HCT-15)?
Its GI50 is > 100 µM.

And the GI50 (OVCAR-5)?
The GI50 was > 100 µM (inactive).

What about the GI50 (K562) of the same molecule?
The GI50 was > 100 µM (inactive).

And the GI50 (OVCAR-4)?
The GI50 was > 100 µM (inactive).
